Results as given in US20080255177A1, “ANTI-TUMOR ACTIVITY OF CCI-779 IN PAPILLARY RENAL CELL CANCER” (Wyeth, priority 2007, published 2008).
Several values for one entry are separate records, joined by “and”; a condition that tells them apart may be missing. Equal entries are not always repeated.

Tested on: advanced metastatic renal cell carcinoma
Test: Phase III study of CCI-779 (temsirolimus) vs αIFN as first-line therapy
Type: in vivo
Conditions: for OS median: first-line, αIFN 3 MU escalating to 18 MU s.c. 3 times/week or CCI-779 25 mg i.v. weekly
Description: In this phase III study, 626 advanced metastatic renal cell carcinoma patients from 26 countries were randomized to αIFN or CCI-779 (temsirolimus) as first-line therapy. This group is a very poor prognosis group of patients with many risk factors for early death. Patients received 3 million units (MU) of αIFN-alone subcutaneously 3 times/week, escalating to 18 MU or 25-mg CCI-779 intravenous infusion weekly.
Eligibility for this study required histologically confirmed, advanced (stage IV or recurrent disease) RCC with no prior systemic therapy for the disease. Subjects with central nervous system metastases, prior anticancer therapy for RCC and prior investigational therapy/agents within 4 weeks of randomization were excluded from the study.
The primary objective of this study was efficacy with a primary endpoint of overall survival. Secondary objectives of this study were safety, health outcomes, and additional efficacy endpoints. The secondary efficacy endpoints of this study were an evaluation of progression-free survival, response rate (complete and partial responses), clinical benefit rate, the duration of overall response, time to treatment failure, and health outcomes measurements. In addition, subject responses across all 3 treatment arms were evaluated based on screening tumor expression of proteins involved in the AKT-mTOR pathway. Other planned and post-hoc analyses were performed to assess influence of tumor histology (clear cell vs. non-clear cell), age (vs. >/=), and prognostic-risk groups (intermediate vs. poor).

[1] = patients <65yo, previously untreated advRCC, vs. αIFN
[2] = patients with clear-cell tumor histology
[3] = patients with other (non clear-cell) tumor histology
[4] = previously untreated clear-cell advRCC, vs. αIFN
[5] = previously untreated non clear-cell advRCC, TEMSR alone vs. αIFN

With CO[C@H]1C[C@@H]2CC[C@@H](C)[C@@](O)(O2)C(=O)C(=O)N2CCCC[C@H]2C(=O)O[C@H]([C@H](C)C[C@@H]2CC[C@@H](OC(=O)C(C)(CO)CO)[C@H](OC)C2)CC(=O)[C@H](C)/C=C(\C)[C@@H](O)[C@@H](OC)C(=O)[C@H](C)C[C@H](C)/C=C/C=C/C=C/1C [TEMSR, rapamycin 42-ester with 3-hydroxy-2-(hydroxymethyl)-2-methylpropionic acid] the “OS hazard ratio, TEMSR vs. αIFN” value (patients <65 years old) was 0.62 and 0.61, the “PFS hazard ratio, TEMSR vs. αIFN” value (patients <65 years old) was 0.61 and 0.62 and the “OS improved by” value [1] was 64%. For the same compound, the “PFS prolonged by” value [1] was 61%, the “reduction in risk of death” value [1] was 39% and the “risk of death or disease progression reduced by” value [1] was 38%. The “difference in OS or PFS, TEMSR or αIFN” value (patients >/=65 years old) was “no difference”, the “OS HR, TEMSR:IFN” value [2] was 0.82 and the “PFS HR, TEMSR:IFN” value [2] was 0.76. For the same compound, the PFS median [2] was 5.5 mo, the OS median [2] was 10.7 mo and the “OS HR, TEMSR:IFN” value [3] was 0.49. For the same compound, the “PFS HR, TEMSR:IFN” value [3] was 0.38, the PFS median [3] was 7.0 mo and the OS median [3] was 11.6 mo. For the same compound, the “OS improved by” value [4] was 22%, the “PFS prolonged by” value [4] was 31% and the “reduction in risk of death” value [4] was 18%. The “risk of death or disease progression reduced by” value [4] was 24%, the “OS improved by” value [5] was 104% and the “PFS prolonged by” value [5] was 163%. The “reduction in risk of death” value [5] was 51%, the “risk of death or disease progression reduced by” value [5] was 62% and the “side effect profile vs. αIFN” value (stated for patients >/=65 years old) was “better side effect profile than αIFN”.
